This note sets out measurements from BindingDB's records for doi:10.1021/acs.jmedchem.0c00435 (University of Bonn, 2020).

Where only a bound is given, the exact number is not on record here.

A short description of the first assay: Antagonist activity P2X1 receptor in human platelets assessed as inhibition of ADP-induced platelet aggregation pre-incubated for 30 mins before ADP stimulation by aggregometry.
As a reminder, the IC50 is the concentration that gives 50% inhibition. Consider `O=C(Nc1cc(F)cc(F)c1)c1cc(Cl)ccc1O`, for which the IC50 is over 20 µM.

As to `O=C(Nc1cc(C(F)(F)F)cc(C(F)(F)F)c1)c1ccc(Cl)cc1O`, the IC50 worked out at 5.47 µM.

As to `O=C(Nc1cc(Cl)cc(Cl)c1)c1cc(Cl)ccc1O`, the IC50 was over 20 µM.

For the compound `O=C(Nc1cc(C(F)(F)F)cc(C(F)(F)F)c1)c1cc(Cl)ccc1O` [TCMDC-125465], the IC50 is 4.73 µM.

Turning to `O=S(=O)(Nc1cc(C(F)(F)F)cc(C(F)(F)F)c1)c1cc(Cl)ccc1O`, the IC50 was over 20 µM.

Another assay is described as follows: Antagonist activity P2X1 receptor in Apyrase pre-treated human platelets assessed as inhibition of TRAP6-induced platelet aggregation pre-incubated for 30 mins before TRAP6 stimulation by aggregometry.
For the compound `O=C(Nc1cc(C(F)(F)F)cc(C(F)(F)F)c1)c1ccccc1` [N-(3,5-Bis(Trifluoromethyl)Phenyl)Benzamide], the IC50 amounted to 5.57 µM.

Turning to `O=C(Nc1cc(F)cc(F)c1)c1cc(Cl)ccc1O`, the IC50 is over 10 µM.

Consider `O=C(Nc1cc(C(F)(F)F)cc(C(F)(F)F)c1)c1ccc(Cl)cc1O`, for which the IC50 turned out to be 4.8 µM.

Turning to `O=C(Nc1cc(Cl)cc(Cl)c1)c1cc(Cl)ccc1O`, the IC50 is over 10 µM.

With `O=C(Nc1cc(C(F)(F)F)cc(C(F)(F)F)c1)c1cc(Cl)ccc1O` [TCMDC-125465], the IC50 was determined as 3.64 µM.

Regarding `O=S(=O)(Nc1cc(C(F)(F)F)cc(C(F)(F)F)c1)c1cc(Cl)ccc1O`, the IC50 was over 10 µM.

A short description of another assay: Antagonist activity P2X1 receptor in Apyrase pre-treated human platelets assessed as inhibition of collagen-induced platelet aggregation pre-incubated for 30 mins before collagen stimulation by aggregometry.
As to `O=C(Nc1cc(C(F)(F)F)cc(C(F)(F)F)c1)c1ccccc1` [N-(3,5-Bis(Trifluoromethyl)Phenyl)Benzamide], the IC50 is 2.1 µM.

Turning to `O=C(Nc1cc(C(F)(F)F)cc(C(F)(F)F)c1)c1ccc(Cl)cc1O`, the IC50 turned out to be 1.14 µM.

Consider `O=C(Nc1cc(Cl)cc(Cl)c1)c1cc(Cl)ccc1O`, for which the IC50 is 3.03 µM.

As for `O=C(Nc1cc(C(F)(F)F)cc(C(F)(F)F)c1)c1cc(Cl)ccc1O` [TCMDC-125465], the IC50 worked out at 0.57 µM.

Take `O=S(=O)(Nc1cc(C(F)(F)F)cc(C(F)(F)F)c1)c1cc(Cl)ccc1O`: the IC50 amounted to 3.13 µM.
